Here are results for 28 compounds from patent US8785488B2 (Exelixis Patent Company LLC, priority 2009, dated 2014).

Read-outs that look alike come from different tables or passages of the source.

The assay deals with T1, human TGR5 (h-TGR5) (Homo sapiens, UniProt Q8TDU6).
T1 construct: expressed in transfected cells
T1 sequence (Q8TDU6 1-330): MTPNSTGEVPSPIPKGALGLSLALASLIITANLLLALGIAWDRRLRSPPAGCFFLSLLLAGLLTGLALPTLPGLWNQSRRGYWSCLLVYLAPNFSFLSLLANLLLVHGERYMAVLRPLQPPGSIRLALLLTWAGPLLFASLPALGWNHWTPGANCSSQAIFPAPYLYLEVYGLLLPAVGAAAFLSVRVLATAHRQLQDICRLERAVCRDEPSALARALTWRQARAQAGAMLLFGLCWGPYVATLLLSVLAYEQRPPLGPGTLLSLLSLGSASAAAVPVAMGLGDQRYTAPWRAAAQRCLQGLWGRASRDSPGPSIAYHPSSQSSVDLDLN
The assay can be described thus: TGR5/CRE-Luciferiase Assay (HEK 293 hTGR5/CRE-Luc cells). The class given is cell-based. As for the experimental part: Compounds were serially diluted in DMEM containing 5% DMSO and 5 μL of compound or media alone was transferred to each well and plates were incubated for 6 hours. Following incubation, 30 μL of lysis/luciferase buffer was added to each well. The luciferase activity was then measured on the EnVision™ plate reader and the dose response data was analyzed using ActivityBase.
In the following tables, EC50 values determined according to the TGR5 cAMP Assay described herein (cAMP); EC50 values determined according to the TGR5/CRE-Luciferiase Assay described herein (CRE-Luc). […] The following compounds in Tables 1 and 2 were made by using procedures described in the above Schemes and Examples, and, where applicable, by making any necessary substitutions of known materials that one skilled in the art would ordinarily understand how to do.

[1] abbreviates: h-TGR5 CRE-Luc EC50, Table 1, read-out: CRE-Luc (EC50).

For orientation: EC50 means the concentration needed to bring the measured effect to its halfway point.

`CC(C)(c1ccc(Cl)c(Cl)c1)c1cnc(S(=O)(=O)Cc2c(F)cccc2Cl)n1-c1ccc(F)cc1F` [2-{[(2-chloro-6-fluorophenyl)methyl]sulfonyl}-5-[1-(3,4-dichlorophenyl)-1-methylethyl]-1-(2,4-difluorophenyl)-1H-imidazole]: under setting [1], the EC50 lay in the range of 0.1 to 1 µM.

As for `CC(C)(c1ccc(Cl)c(Cl)c1)c1cnc(S(=O)(=O)Cc2ccc(F)c(C(F)(F)F)c2)n1-c1ccc(F)cc1` [5-[1-(3,4-dichlorophenyl)-1-methylethyl]-1-(4-fluorophenyl)-2-({[4-fluoro-3-(trifluoromethyl)phenyl]methyl}sulfonyl)-1H-imidazole], under setting [1], the EC50 is 0.1 to 1 µM.

Take `CC(C)(C)OC(=O)N1CCC(CSc2ncc(C(C)(C)c3ccc(Cl)c(Cl)c3)n2-c2ccc(F)cc2)C1` (stereo not shown) [1,1-dimethylethyl 3-[({5-[1-(3,4-dichlorophenyl)-1-methylethyl]-1-(4-fluorophenyl)-1H-imidazol-2-yl}thio)methyl]pyrrolidine-1-carboxylate]: the EC50 under setting [1] was 0.1 to 1 µM.

Turning to `CC(C)(c1ccc(Cl)c(Cl)c1)c1cnc(CCc2ccc(S(=O)(=O)NC(=O)NN3CCCC3)cc2Cl)n1-c1ccc(F)cc1` [3-chloro-4-(2-{5-[1-(3,4-dichlorophenyl)-1-methylethyl]-1-(4-fluorophenyl)-1H-imidazol-2-yl}ethyl)-N-[(pyrrolidin-1-ylamino)carbonyl]benzenesulfonamide], under setting [1], the EC50 lay in the range of 1 to 10 µM.

Turning to `CC(C)(c1ccc(Cl)c(Cl)c1)c1cnc(SCc2cc(C#N)ccc2Cl)n1-c1ccc(F)cc1` [4-chloro-3-[({5-[1-(3,4-dichlorophenyl)-1-methylethyl]-1-(4-fluorophenyl)-1H-imidazol-2-yl}thio)methyl]benzonitrile], under setting [1], the EC50 was less than 0.1 µM.

With `CC(C)(c1ccc(Cl)c(Cl)c1)c1cnc(S(=O)(=O)Nc2ccc(F)cc2Cl)n1-c1ccc(F)cc1` [N-(2-chloro-4-fluorophenyl)-5-[1-(3,4-dichlorophenyl)-1-methylethyl]-1-(4-fluorophenyl)-1H-imidazole-2-sulfonamide], the concentration giving a half-maximal response (EC50) under setting [1] is 1 to 10 µM.

As to `CC(C)(c1ccc(Cl)c(Cl)c1)c1cnc(S(=O)(=O)Cc2c(Cl)cccc2Cl)n1-c1ccc(F)cc1` [5-[1-(3,4-dichlorophenyl)-1-methylethyl]-2-{[(2,6-dichlorophenyl)methyl]sulfonyl}-1-(4-fluorophenyl)-1H-imidazole], under setting [1], the EC50 is 0.1 to 1 µM.

With `Fc1ccc(-n2c(Cc3ccc(Cl)c(Cl)c3)nnc2SCc2cccc(Cl)c2F)cc1` [Example 2], under “HEK 293 hTGR5/CRE-Luc cells, 6 hours incubation, luciferase activity, Table 2, read-out: h-TGR5CRE-Luc EC50 (CRE-Luc)”, the EC50 lay in the range of 1 to 10 µM.

For `COc1ccc(C(C)(C)c2cnc(C(=O)Nc3c(F)cccc3Cl)n2-c2ccc(F)cc2)cc1OC` [5-{1-[3,4-bis(methyloxy)phenyl]-1-methylethyl}-N-(2-chloro-6-fluorophenyl)-1-(4-fluorophenyl)-1H-imidazole-2-carboxamide], under setting [1], the concentration for a half-maximal effect (EC50) is 1 to 10 µM.

Take `CC(C)(c1ccc(Cl)c(Cl)c1)c1cnc(COc2ccc(C(=O)O)cn2)n1-c1ccc(F)cc1` [6-[({5-[1-(3,4-dichlorophenyl)-1-methylethyl]-1-(4-fluorophenyl)-1H-imidazol-2-yl}methyl)oxy]pyridine-3-carboxylic acid]: under setting [1], the EC50 lay within 0.1 to 1 µM.

Take `CC(C)(c1ccc(OC(F)(F)F)c(Cl)c1)c1cnc(SCc2ccc(F)cc2Cl)n1-c1ccc(F)cc1` [2-{[(2-chloro-4-fluorophenyl)methyl]thio}-5-(1-{3-chloro-4-[(trifluoromethyl)oxy]phenyl}-1-methylethyl)-1-(4-fluorophenyl)-1H-imidazole]: the EC50 under setting [1] was in the range of 1 to 10 µM.

Take `CC(C)(c1ccc(Cl)c(Cl)c1)c1cnc(S(=O)(=O)C(C)(C)c2c(F)cccc2Cl)n1-c1ccc(F)cc1` [2-{[1-(2-chloro-6-fluorophenyl)-1-methylethyl]sulfonyl}-5-[1-(3,4-dichlorophenyl)-1-methylethyl]-1-(4-fluorophenyl)-1H-imidazole]: the EC50 under setting [1] was in the range of 0.1 to 1 µM.

Consider `CC(C)(c1ccc(Cl)c(Cl)c1)c1cnc(SCc2ccc(F)cc2S(N)(=O)=O)n1-c1ccc(F)cc1` [2-[({5-[1-(3,4-dichlorophenyl)-1-methylethyl]-1-(4-fluorophenyl)-1H-imidazol-2-yl}thio)methyl]-5-fluorobenzenesulfonamide], for which, under setting [1], the EC50 is 0.1 to 1 µM.

Regarding `CC(C)(c1ccc(Cl)c(Cl)c1)c1cnc(C2CCN(S(C)(=O)=O)CC2)n1-c1ccc(F)cc1` [4-{5-[1-(3,4-dichlorophenyl)-1-methylethyl]-1-(4-fluorophenyl)-1H-imidazol-2-yl}-1-(methylsulfonyl)piperidine], under setting [1], the EC50 is 1 to 10 µM.

In the case of `CC(C)n1c(C(C)(C)c2ccc(Cl)c(Cl)c2)cnc1SCc1c(F)cccc1Cl` [2-{[(2-chloro-6-fluorophenyl)methyl]thio}-5-[1-(3,4-dichlorophenyl)-1-methylethyl]-1-(1-methylethyl)-1H-imidazole], under setting [1], the EC50 lay within 1 to 10 µM.

Consider `CC(C)(O)COc1cc(F)ccc1CSc1ncc(C(C)(C)c2ccc(Cl)c(Cl)c2)n1-c1ccc(F)cc1` [1-({2-[({5-[1-(3,4-dichlorophenyl)-1-methylethyl]-1-(4-fluorophenyl)-1H-imidazol-2-yl}thio)methyl]-5-fluorophenyl}oxy)-2-methylpropan-2-ol], for which the EC50 under setting [1] fell in the range of 0.1 to 1 µM.

Consider `CC(C)(c1ccc(Cl)c(Cl)c1)c1cnc(SCc2ccc(F)c(CO)c2)n1-c1ccc(F)cc1` [{5-[({5-[1-(3,4-dichlorophenyl)-1-methylethyl]-1-(4-fluorophenyl)-1H-imidazol-2-yl}thio)methyl]-2-fluorophenyl}methanol], for which, under setting [1], the EC50 lay in the range of 0.1 to 1 µM.

Consider `CC(C)(c1ccc(Cl)c(Cl)c1)c1c(Cl)nc(SCc2c(F)cccc2Cl)n1-c1ccc(F)cc1` [4-chloro-2-{[(2-chloro-6-fluorophenyl)methyl]thio}-5-[1-(3,4-dichlorophenyl)-1-methylethyl]-1-(4-fluorophenyl)-1H-imidazole], for which the 50% effective concentration (EC50) under setting [1] is 0.1 to 1 µM.

Regarding `CC(C)(c1ccc(F)cc1)c1cnc(SCc2ccc(S(=O)(=O)NC(=O)NN3CCCC3)cc2Cl)n1-c1ccc(F)c(F)c1` [3-chloro-4-[({1-(3,4-difluorophenyl)-5-[1-(4-fluorophenyl)-1-methylethyl]-1H-imidazol-2-yl}thio)methyl]-N-[(pyrrolidin-1-ylamino)carbonyl]benzenesulfonamide], the EC50 under setting [1] is 1 to 10 µM.

Regarding `COc1ccc(C(C)(C)c2cnc(S(=O)(=O)CCc3ccc(F)cc3Cl)n2-c2ccc(F)cc2)cc1OC` [5-{1-[3,4-bis(methyloxy)phenyl]-1-methylethyl}-2-{[2-(2-chloro-4-fluorophenyl)ethyl]sulfonyl}-1-(4-fluorophenyl)-1H-imidazole], the EC50 under setting [1] is less than 0.1 µM.

Turning to `CC(C)(c1ccc(Cl)c(Cl)c1)c1cnc(C(=O)CCc2ccc(Cl)cc2Cl)n1-c1ccc(F)cc1` [3-(2,4-dichlorophenyl)-1-{5-[1-(3,4-dichlorophenyl)-1-methylethyl]-1-(4-fluorophenyl)-1H-imidazol-2-yl}propan-1-one], the half-maximal effective concentration (EC50) under setting [1] is 1 to 10 µM.

Turning to `CC(C)(O)c1ccc(CSc2ncc(C(C)(C)c3ccc(Cl)c(Cl)c3)n2-c2ccc(F)cc2)c(F)c1` [2-{4-[({5-[1-(3,4-dichlorophenyl)-1-methylethyl]-1-(4-fluorophenyl)-1H-imidazol-2-yl}thio)methyl]-3-fluorophenyl}propan-2-ol], the EC50 under setting [1] was 0.1 to 1 µM.

Regarding `CC(C)(c1ccc(Cl)c(Cl)c1)c1cnc(CSc2ccc(Cl)c(Cl)c2)n1-c1ccc(F)cc1` [5-[1-(3,4-dichlorophenyl)-1-methylethyl]-2-{[(3,4-dichlorophenyl)thio]methyl}-1-(4-fluorophenyl)-1H-imidazole], under setting [1], the EC50 lay in the range of 0.1 to 1 µM.

Regarding `CC(C)(c1ccc(Cl)c(Cl)c1)c1cnc(SCc2ccc(Cl)c(-c3nnn[nH]3)c2)n1-c1cccc(F)c1` [5-{2-chloro-5-[({5-[1-(3,4-dichlorophenyl)-1-methylethyl]-1-(3-fluorophenyl)-1H-imidazol-2-yl}thio)methyl]phenyl}-1H-tetrazole], the EC50 under setting [1] lay in the range of 0.1 to 1 µM.

Turning to `CC(C)(c1ccc2c(c1)OCCO2)c1cnc(SCc2ccc(F)cc2Cl)n1-c1ccc(F)cc1` [2-{[(2-chloro-4-fluorophenyl)methyl]thio}-5-[1-(2,3-dihydro-1,4-benzodioxin-6-yl)-1-methylethyl]-1-(4-fluorophenyl)-1H-imidazole], the EC50 under setting [1] is less than 0.1 µM.

As for `CC(C)(C)OC(=O)N1CCC(CSc2ncc(C(C)(C)c3ccc(F)c(F)c3)n2-c2ccc(F)cc2)CC1` [1,1-dimethylethyl 4-[({5-[1-(3,4-difluorophenyl)-1-methylethyl]-1-(4-fluorophenyl)-1H-imidazol-2-yl}thio)methyl]piperidine-1-carboxylate], under setting [1], the EC50 lay within 0.1 to 1 µM.

With `CC(C)(c1ccc(Cl)c(Cl)c1)c1cnc(SCc2ccc(F)c(-c3nnn[nH]3)c2)n1-c1ccc(F)cc1` [5-{5-[({5-[1-(3,4-dichlorophenyl)-1-methylethyl]-1-(4-fluorophenyl)-1H-imidazol-2-yl}thio)methyl]-2-fluorophenyl}-1H-tetrazole], the EC50 under setting [1] is 0.1 to 1 µM.

With `CC(C)(c1ccc(Cl)c(Cl)c1)c1cnc(SCc2c(F)cccc2Cl)n1-c1ccc(F)cc1C(F)(F)F` [2-{[(2-chloro-6-fluorophenyl)methyl]thio}-5-[1-(3,4-dichlorophenyl)-1-methylethyl]-1-[4-fluoro-2-(trifluoromethyl)phenyl]-1H-imidazole], the EC50 under setting [1] was in the range of 1 to 10 µM.
